Assay results as given in ChEMBL document CHEMBL1149290, “Discovery of tetralin carboxamide growth hormone secretagogue receptor antagonists via scaffold manipulation” (J Med Chem, 2004).

Columns and labels:
[1] = Clearance in rat; assay type: ADME, organism-based; details: in vivo
[2] = molecular target: Muscarinic acetylcholine receptor; assay: Inhibition of muscarinic receptor; assay type: protein assay, Homo sapiens
[3] = Inhibition of dopaminergic receptor; design: species or system Homo sapiens
[4] = Oral bioavailability in rat; assay type: ADME, organism-based; details: in vivo
[5] = Inhibition of histaminergic receptor
[6] = Inhibition of adrenergic receptor; design: species or system Homo sapiens
[7] = molecular target: Voltage-gated inwardly rectifying potassium channel KCNH2 (Homo sapiens, UniProt Q12809); assay: Inhibition of hERG receptor; assay type: toxicity
[8] = molecular target: Growth hormone secretagogue receptor type 1 (Homo sapiens, UniProt Q92847); assay: Binding affinity to GHSR
Growth hormone secretagogue receptor type 1, sequence (Q92847 whole entry): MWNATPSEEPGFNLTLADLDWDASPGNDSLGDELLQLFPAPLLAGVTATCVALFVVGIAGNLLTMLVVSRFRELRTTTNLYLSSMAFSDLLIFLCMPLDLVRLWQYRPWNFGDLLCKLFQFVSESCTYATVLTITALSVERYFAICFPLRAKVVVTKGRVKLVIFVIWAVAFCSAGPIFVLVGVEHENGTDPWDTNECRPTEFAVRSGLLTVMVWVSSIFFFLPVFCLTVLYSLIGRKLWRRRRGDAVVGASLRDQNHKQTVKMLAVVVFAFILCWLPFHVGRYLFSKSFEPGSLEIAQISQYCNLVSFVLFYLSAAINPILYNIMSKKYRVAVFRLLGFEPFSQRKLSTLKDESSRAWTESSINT

Voltage-gated inwardly rectifying potassium channel KCNH2, sequence (Q12809 whole entry): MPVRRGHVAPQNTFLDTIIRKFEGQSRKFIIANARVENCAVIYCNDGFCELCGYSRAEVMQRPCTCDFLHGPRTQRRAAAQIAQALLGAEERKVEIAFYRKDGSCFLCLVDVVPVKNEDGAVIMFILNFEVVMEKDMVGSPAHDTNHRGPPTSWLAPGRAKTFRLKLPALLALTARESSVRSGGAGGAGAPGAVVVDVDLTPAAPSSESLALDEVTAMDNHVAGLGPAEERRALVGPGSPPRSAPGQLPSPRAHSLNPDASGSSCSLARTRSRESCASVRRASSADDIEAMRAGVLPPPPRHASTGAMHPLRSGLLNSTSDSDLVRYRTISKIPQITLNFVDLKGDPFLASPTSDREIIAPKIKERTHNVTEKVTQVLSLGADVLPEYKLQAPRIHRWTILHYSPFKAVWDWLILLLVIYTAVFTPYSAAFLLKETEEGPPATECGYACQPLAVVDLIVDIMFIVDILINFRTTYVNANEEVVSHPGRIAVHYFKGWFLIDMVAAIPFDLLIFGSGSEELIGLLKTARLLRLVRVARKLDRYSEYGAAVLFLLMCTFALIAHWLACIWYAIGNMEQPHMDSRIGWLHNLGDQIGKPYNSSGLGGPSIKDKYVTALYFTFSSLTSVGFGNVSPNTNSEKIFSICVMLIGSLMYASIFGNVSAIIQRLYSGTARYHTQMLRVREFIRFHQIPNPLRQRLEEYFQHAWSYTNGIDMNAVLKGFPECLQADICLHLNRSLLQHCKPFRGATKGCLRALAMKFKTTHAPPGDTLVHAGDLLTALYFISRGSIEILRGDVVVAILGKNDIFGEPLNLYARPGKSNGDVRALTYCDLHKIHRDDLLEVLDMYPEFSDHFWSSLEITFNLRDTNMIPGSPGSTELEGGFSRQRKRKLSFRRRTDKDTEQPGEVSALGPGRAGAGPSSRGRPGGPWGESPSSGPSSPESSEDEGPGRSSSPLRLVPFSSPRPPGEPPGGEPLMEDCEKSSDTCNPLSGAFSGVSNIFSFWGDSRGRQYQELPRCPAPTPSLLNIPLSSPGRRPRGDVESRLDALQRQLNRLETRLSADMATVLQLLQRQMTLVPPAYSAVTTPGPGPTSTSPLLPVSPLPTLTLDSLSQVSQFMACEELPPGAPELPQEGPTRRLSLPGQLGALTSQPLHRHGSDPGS

Row | clearance [1] | bioavailability [4] | IC50 [8] | Compound | further results
1 | 61.7 mL/min/kg | – | – | CCN(CC)c1ccc(NC(=O)c2c(-c3c(Cl)cccc3Cl)noc2C)cc1 | –
2 | 21.7 mL/min/kg | 19% | – | CCN(CC)c1ccc(NC(=O)C2(N(C)C(=O)OCC(C)C)CCc3cccc(OC)c3C2)cc1 (racemic) | IC50 [2]: > 33 µM; IC50 [3]: > 33 µM; IC50 [5]: > 33 µM; IC50 [6]: > 33 µM; IC50 [7]: 6.1 µM
3 | – | – | 2.7 µM (antagonist) | CCN(CC)c1ccc(NC(=O)C2CCc3ccccc3C2)cc1 (racemic) | –
4 | – | – | 0.011 µM (antagonist) | CCN(CC)c1ccc(NC(=O)C2(NC(=O)OCC(C)C)CCc3ccccc3C2)cc1 (racemic) | –
5 | – | 3.8% | 0.002 µM (antagonist) | CCN(CC)c1ccc(NC(=O)C2(NC(=O)OCC(C)C)CCc3cccc(Cl)c3C2)cc1 (racemic) | –
6 | – | – | 0.12 µM (antagonist) | CCN(CC)c1ccc(NC(=O)C2(NC(=O)OC(C)(C)C)CCc3ccccc3C2)cc1 (racemic) | –
